The text below walks through data of patent US11628159B2, “Cell-protective compounds and their use” (ETH ZURICH, priority 2017, dated 2023).

The subject of assay [1] is B6 mice with AAC. The experiment in a line: Chronic pressure overload (AAC) model, 7 days of treatment: cardiac p-Srsf1 and echocardiography. The class given is in vivo, mouse. The note with it: 5 mg/kg/d for 7 days. Here is the method: A, The GRK2-mediated phosphorylation of Srsf1 was determined by immunoblot in cardiac lysates prepared from hearts of non-transgenic B6 mice after treatment (i.p.) for 5 h with 10 mg/kg of 1-(1,3-benzodioxol-5-yl)-4-(cyclopropane-carbonyl)-3-hydroxy-2-phenyl-2H-pyrrol-5-one (“Compound-1”), 4-(1,3-benzodioxol-5-yl)pyrimidine (“Compound-4”), 1-(1,3-benzodioxol-5-ylmethyl)-5-(4-fluorophenyl)-2-methyl-pyrrole-3-carboxamide (“Compound-2”), or (4R)-N3-(1,3-benzodioxol-5-ylmethyl)-N4-[[3-(trifluoromethyl)phenyl]-methyl]pyrrolidine-3,4-dicarboxamide (“Compound-5”) relative to vehicle-treated B6 controls (“con”). […] B, Left panel: The AAC-induced cardiac p-Srsf1 content was determined in cardiac lysates from B6 mice with AAC after treatment for 7 days with 5 mg/kg/d of 1-(1,3-benzodioxol-5-yl)-4-(cyclopropane-carbonyl)-3-hydroxy-2-phenyl-2H-pyrrol-5-one (“Compound-1”) or (4R)-N3-(1,3-benzodioxol-5-ylmethyl)-N4-[[3-(trifluoromethyl)phenyl]-methyl]pyrrolidine-3,4-dicarboxamide (“Compound-5”) relative to vehicle-treated B6 controls with AAC (“AAC-con”). […] Right and lower panels: Cardiac function parameters were determined by echocardiography in B6 mice with AAC after treatment for 7 days with “Compound-1” or “Compound-5” relative to vehicle-treated B6 controls with AAC ((±s.d.; n=5 (A) and n=3 (B); Dunnett's Multiple Comparison Test vs. con (A) or AAC-con (B)). […]

Assay [2] has as its system GRK2-mediated phosphorylation of SRSF1. The assay can be described thus: Immunoblot of SRSF1 phosphorylation (pSRSF1) in HEK (human embryonic kidney) cells. The class given is cell-based. Particulars: 10 microM, 60 h, relative to vehicle. On the procedure: A, The GRK2-mediated phosphorylation of SRSF1/Srsf1 was determined by immunoblot in lysates from isolated neonatal cardiomyocytes from Tg-SRSF1 mice after incubation for 60 h with 10 microM of paroxetine, 1-(1,3-benzodioxol-5-yl)-4-(cyclopropane-carbonyl)-3-hydroxy-2-phenyl-2H-pyrrol-5-one (“Compound-1”) or 4-(1,3-benzodioxol-5-yl)pyrimidine (“Compound-4”) relative to vehicle-treated control (“C”) cardiomyocytes. B, Immunoblot detection of GRK2-mediated phosphorylation of SRSF1 (pSRSF1) was performed with lysates from HEK (human embryonic kidney) cells incubated for 60 h with 10 microM of 4-(1,3-benzodioxol-5-yl)pyrimidine (“Compound-4”), 1-(1,3-benzodioxol-5-ylmethyl)-5-(4-chlorophenyl)-2-methyl-pyrrole-3-carboxamide (“Compound-24”) or (4R)-N3-(1,3-benzodioxol-5-ylmethyl)-N4-[[3-(trifluoromethyl)phenyl]-methyl]pyrrolidine-3,4-dicarboxamide (“Compound-5”) relative to vehicle-treated controls (“C”).
Briefly, the hearts were dissected out from 2-3 day-old mice, atria and aorta were removed, and the hearts were transferred into sterile buffer A (137 mM NaCl, 5.36 mM KCl, 0.81 mM MgSO4, 5.55 mM dextrose, 0.44 mM KH2PO4, 0.34 mM Na2HPO4, 20 mM HEPES, 100 U/ml penicillin, 100 microg/ml streptomycin, pH 7.4). […]

For `O=C(C1=C(O)C(c2ccccc2)N(c2ccc3c(c2)OCO3)C1=O)C1CC1` (stereo not drawn) [Compound-1, 1-(1,3-benzodioxol-5-yl)-4-(cyclopropane-carbonyl)-3-hydroxy-2-phenyl-2H-pyrrol-5-one], in assay [1] (echocardiography), the “cardiac performance after chronic pressure overload imposed by AAC” value is “improved”. Besides, in assay [1] (relative to vehicle), the “chronic pressure overload-induced cardiac p-Srsf1 content” value is “retarded”.
As to `c1cc(-c2ccc3c(c2)OCO3)ncn1` [Compound-4, 4-(1,3-benzodioxol-5-yl)pyrimidine], in assay [2], the “SRSF1 phosphorylation in human kidney cells” value is “inhibited”.
